# Measured values from patent US6060516A, “N^1 -propargylhydrazines, N^2 -propargylhydrazines and their analogs for the treatment of depression, anxiety and neurodegeneration” (CV Technologies, Inc., priority 1998, dated 2000).
# Experiments:
# [1] = biological target: T1, rat brain monoamine oxidase-A (Rattus norvegicus, UniProt P21396); test: Monoamine oxidase-A inhibiting activity in vitro (radiochemical, 5-hydroxytryptamine substrate, rat brain homogenate); format: biochemical; details: for inhibition at 100 µM: 1 × 10^-4 M; for inhibition at 10 µM: 1 × 10^-5 M; for inhibition at 1 µM: 1 × 10^-6 M; for inhibition at 0.1 µM: 1 × 10^-7 M; for inhibition at 0.01 µM: 1 × 10^-8 M
# T1 construct: appropriately diluted homogenates of rat brain or liver; from tissue; host or cells: rat brain or liver homogenate
# T1 sequence (P21396 1-526): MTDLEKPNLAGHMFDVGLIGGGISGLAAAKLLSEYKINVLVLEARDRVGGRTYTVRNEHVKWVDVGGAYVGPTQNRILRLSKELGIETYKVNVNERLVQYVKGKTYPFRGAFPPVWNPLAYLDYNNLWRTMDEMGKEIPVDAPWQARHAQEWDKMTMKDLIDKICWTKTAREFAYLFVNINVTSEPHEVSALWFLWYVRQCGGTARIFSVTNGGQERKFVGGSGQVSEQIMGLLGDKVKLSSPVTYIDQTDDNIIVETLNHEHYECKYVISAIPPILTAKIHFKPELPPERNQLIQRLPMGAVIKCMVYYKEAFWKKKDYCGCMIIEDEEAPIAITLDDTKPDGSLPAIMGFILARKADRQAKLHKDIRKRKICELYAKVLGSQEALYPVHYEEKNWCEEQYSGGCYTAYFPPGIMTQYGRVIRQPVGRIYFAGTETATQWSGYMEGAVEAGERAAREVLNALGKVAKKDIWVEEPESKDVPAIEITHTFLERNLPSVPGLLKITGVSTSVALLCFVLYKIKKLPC
# Experimental: Radiolabelled 5-hydroxytryptamine was used as the substrate for monoamine oxidase-A. Various concentrations of the compounds were incubated in appropriately diluted homogenates of rat brain or liver in a 0.2 M potassium phosphate buffer. Incubations proceeded at 37° C. for 10 minutes. Incubation was terminated by the addition of acid and the radiolabelled product (5-hydroxyindoleacetic acid) was extracted and quantified by liquid scintillation counting procedures. Incubations were done in triplicate and incubations containing phenelzine were included for comparison. The percent inhibition of monoamine oxidase-A activity compared to controls without the compounds of the present invention was calculated.
# [2] = test system: rat brain and liver monoamine oxidase-A; test: Monoamine oxidase-A inhibiting activity ex vivo; format: in vivo
# Experimental: (§1) Radiolabelled 5-hydroxytryptamine was used as a substrate for monoamine oxidase-A. The compounds of interest were either injected intraperitonealy in DMSO or administered by gavage in water for various periods. The animals were killed by decapitation and the brains and livers immediately removed and frozen until assayed for monoamine oxidase-A activity. Tissues were homogenized and appropriately diluted in buffer prior to incubation. Incubations proceeded at 37° C. for 10 minutes. Incubation was terminated by the addition of acid and the radiolabelled product (5-hydroxyindoleacetaldehyde and 5-hydroxyindoleacetic acid) was extracted and quantified by liquid scintillation counting procedures. Incubations were done in triplicate and incubations containing phenelzine were included for comparison. The percent inhibition of monoamine oxidase-A activity compared to controls containing no drug was calculated.
# (§2) Values are the mean ± the standard error based on (n) determinations.
# (§3) Oral doses were administered as 75 μmol/kg on day 1, 75 μmol/kg on
# (§4) day 2 and the animals were killed 5 hours later.
# [3] = test system: rat brain and liver monoamine oxidase-B; test: Monoamine oxidase-B inhibiting activity ex vivo; format: in vivo
# Experimental: as §1, with “β-phenylethylamine” for “5-hydroxytryptamine”, “employed” for “used”, “oxidase-B.” for “oxidase-A.”, “intraperitoneally” for “intraperitonealy”, “oxidase-B” for “oxidase-A”, “(phenylacetic” for “(5-hydroxyindoleacetaldehyde and 5-hydroxyindoleacetic”
# as §2, §3, §4
# [4] = test system: NA, DA, 5-HT, 5-HIAA and DOPAC concentrations in rat hypothalamus; test: Rat hypothalamus amine and amine metabolite concentrations; format: in vivo
# Experimental: The effects of various doses of CVT-P040 on the concentrations of hypothalamus amine neurotransmitters and their metabolites were evaluated by examining concentrations of noradrenaline (NA), dopamine (DA), 5-hydroxytryptamine (5-HT), 5-hydroxyindoleacetic acid (5-HIAA) and 3,4-dihydroxyphenylacetic acid (DOPAC) in rat hypothalami 5 hours after the injection of the drug. […] The brains were removed and divided in half. One half of the brain was frozen in isopentane on dry ice and retained for estimates of amino acid neurotransmitter concentrations. The other half had the hypothalamus removed and frozen on dry ice for later estimates of amines and their metabolites according to the method of Sloley, B. D. and Goldberg J. I. (1991), Determination of γ-glutamyl conjugates of monoamines by means of high-performance liquid chromatography with electrochemical detection and application to gastropod tissues, J. Chromatog. 567: 49-56. The rest of the brain was frozen on dry ice for ex vivo examination of MAO activity as described earlier.
# [5] = test system: valine, alanine and gamma-aminobutyric acid (GABA) concentrations in rat brain; test: Brain valine, alanine and gamma-aminobutyric acid (GABA) concentrations; format: in vivo; details: for GABA / Valine: 150 μmol/kg, 5 hr, ip
# Experimental: Effects of various doses of CVT-P040, CVT-P041 and phenelzine on the concentrations of some brain amino acids were evaluated by examining concentrations of gamma-aminobutyric acid (GABA) 5 hours after the injection of the drug. Briefly, rats were injected with CVT-P040 ([…]), vehicle, or phenelzine (150 μmol/kg) and killed 3 or 5 hours later. The brains were removed and divided in half. One half of the brain was frozen in isopentane on dry ice and retained for estimates of GABA concentrations. GABA and other amino acid concentrations were estimated using the method of Wong, J. T. F., Baker, G. B. and Coutts, R. T. (1990), A rapid, sensitive assay for γ-aminobutyric acid in brain using electron-capture gas chromatography, Res. Comm. Chem. Path. Pharmacol. 70: 115-122.
# [6] = brain, 150 μmol/kg, 5 hr, i.p. in 10% DMSO
# [7] = brain, 2 × 75 μmol/kg per os (day 1 and day 2, killed 5 hours later)
# [8] = liver, 2 × 75 μmol/kg per os (day 1 and day 2, killed 5 hours later)
# [9] = brain, 150 μmol/kg, 5 hr, i.p. in 10% DMSO (Table 4, MAO-B by title)
# [10] = brain, 2 × 75 μmol/kg per os (Table 4, MAO-B by title)
# [11] = liver, 2 × 75 μmol/kg per os (Table 4, MAO-B by title)
SMILES,inhibition at 100 µM [1],inhibition at 10 µM [1],inhibition at 1 µM [1],inhibition at 0.1 µM [1],inhibition at 0.01 µM [1],"% Inhibition Monoamine Oxidase-A [2, 6]","% Inhibition Monoamine Oxidase-A [2, 7]","% Inhibition Monoamine Oxidase-A [2, 8]","% Inhibition of Monoamine Oxidase-B [3, 9]","% Inhibition of Monoamine Oxidase-B [3, 10]","% Inhibition of Monoamine Oxidase-B [3, 11]","5-HIAA ([4]; 150 μmol/kg, 5 hr, ip)","5-HT ([4]; 150 μmol/kg, 5 hr, ip)","DA ([4]; 150 μmol/kg, 5 hr, ip)","DOPAC ([4]; 150 μmol/kg, 5 hr, ip)","NA ([4]; 150 μmol/kg, 5 hr, ip)",5-HIAA ([4]; 2 × 75 μmol/kg per os),DOPAC ([4]; 2 × 75 μmol/kg per os),NA ([4]; 2 × 75 μmol/kg per os),GABA [5],further results
"C#CCN(CCc1ccccc1)NC(C)=O [CVT-P041, N^1 -propargyl-N^2 -acetylphenelzine]",79.5%,27.7%,4.2%,1.8%,0.3%,98.4 ± 0.0%,92.9 ± 1.7%,98.3 ± 0.2%,77.6 ± 0.4%,73.6 ± 2.2%,97.4 ± 0.2%,179 ± 6 ng/g,1100 ng/g,461 ± 34 ng/g,91 ± 6 ng/g,2141 ± 86 ng/g,228 ± 17 ng/g,50 ng/g,1749 ng/g,253 ± 0 µg/g,"Valine [5]: 20.6 ± 0.5 µg/g; GABA concentrations ([5]; doses as high as 150 μmol/kg, in words): did not elevate GABA concentrations; elevation of alanine ([5]; in words): elevation of alanine was not seen"
"NNCCc1ccccc1 [phenelzine, 1-(2-phenyl) ethylhydrazine, reference compound]",100%,100%,98.9%,62.9%,6.9%,97.2%,96.5 ± 1.2%,97.7 ± 0.3%,83.3 ± 2.3%,76.4 ± 3.4%,95.6 ± 1.0%,131 ng/g,1583 ± 95 ng/g,385 ng/g,51 ± 4 ng/g,2113 ± 102 ng/g,167 ng/g,54 ± 4 ng/g,2148 ± 171 ng/g,773 ± 37 µg/g,"% Inhibition Monoamine Oxidase-A ([2]; brain, 5.75 μmol/kg, 5 hr, i.p. in 10% DMSO): 9.1 ± 5.3%; % Inhibition Monoamine Oxidase-A ([2]; liver, 5.75 μmol/kg, 5 hr, i.p. in 10% DMSO): 36.4 ± 5.3%; % Inhibition of Monoamine Oxidase-B ([3]; brain, 5.75 μmol/kg, 5 hr, i.p. in 10% DMSO (Table 4, MAO-B by title)): -2.7 ± 5.6%; % Inhibition of Monoamine Oxidase-B ([3]; liver, 5.75 μmol/kg, 5 hr, i.p. in 10% DMSO (Table 4, MAO-B by title)): 18.1 ± 5.8%; 5-HIAA ([4]; 5.75 μmol/kg, 5 hr, ip): 334 ± 23 ng/g; 5-HT ([4]; 5.75 μmol/kg, 5 hr, ip): 755 ng/g; DA ([4]; 5.75 μmol/kg, 5 hr, ip): 544 ± 66 ng/g; DOPAC ([4]; 5.75 μmol/kg, 5 hr, ip): 89 ± 7 ng/g; NA ([4]; 5.75 μmol/kg, 5 hr, ip): 1468 ± 119 ng/g; Valine [5]: 22.9 ± 0.4 µg/g"
